Read-outs that look alike come from different tables or passages of the source.
Tests used:
[1] = target: T1, Cathepsin H (Homo sapiens, UniProt P09668); assay: Ki against cathepsin H (Z-R-AMC); type: biochemical; settings: SigmaPlot at 3 different substrate concentrations; pH 6.8
T1 construct: native cathepsin H was isolated from human liver; from tissue; host or cells: human liver
Experimental: (§1) Recombinant or native human cathepsins were used: recombinant cathepsin X and cathepsin S were expressed in Pichia pastoris, recombinant cathepsins B and L in E. coli, [43], native cathepsin H was isolated from human liver. Assay buffers for determining activities of cathepsins X and L consisted of 100 mM sodium acetate buffer, pH 5.5, for cathepsins H, S and B (endopeptidase activity) of 100 mM phosphate buffer pH 6.8, 6.5 and 6.0, respectively and for cathepsin B (exopeptidase activity) of 60 mM acetate buffer pH 5.0. Each assay buffer contained 0.01% Triton X-100 to prevent false positive inhibition due to aggregation of compounds[45], 5 mM cysteine, 1.5 mM EDTA and 0.1% PEG 8000. Enzymes were activated at 37 °C for 5 min before the assays.
(§2) Ki was determined by measuring the initial rate of hydrolysis at three different substrate concentrations (Supplementary Table S2) in the presence of seven different compound concentrations (0, 20, 40, 60, 80, 100 and 200 μM). 90 μL of the activated cathepsin was added to a black 96-well plate with 5 μL of the substrate and 5 μL of the compound. Formation of the fluorescent degradation product was monitored continuously at 460 nm ± 10 nm with excitation at 380 nm ± 20 nm (for AMC substrates) and, as noted above for Abz substrates, at 37 °C. All measurements were performed twice and in duplicate. The resulting data were analyzed by non-linear regression using the software SigmaPlot®, Enzyme Kinetics Module™ 1.3 and were fitted to the equation v = v max [S]/([S] (1 + [I]/αK i ) + K m (1 + [I]/K i )) (first group of compounds). For Ki determination against cathepsin X for the compounds from the second group, progress curves in the absence and presence of each putative inhibitor were fitted to the reaction mechanism presented in Fig. 3b. In this case the resulting data as well as reactivation curves were fitted to the equation system presented in Fig. 3c using ENZO application. For calculation of kinetic parameters from reaction progress curves the fluorescence coefficient for conversion of arbitrary fluorescence units to concentration was first determined. The fluorescence coefficient was calculated as the slope from the plot of initial substrate concentration vs. height of the plateau of the progress curve after complete hydrolysis of increasing concentrations of substrate, using linear regression.
(§3) Supplementary Table S2. Substrates used for the various cathepsins and their concentrations […]
(§4) Enzyme Substrate Concentration (µM) Reference/Company cathepsin X Abz-FEK(Dnp)-OH 3.25, 6.5, 13 Puzer et al.3 cathepsin B - endopept. Z-RR-AMC 60, 180, 360 Bachem cathepsin B - exopept. Abz-GIVRAK(Dnp)-OH 1, 3, 6 Bachem cathepsin S Z-VVR-AMC 0.5, 1, 1.5 Biomol cathepsin L Z-FR-AMC 0.5, 1, 4 Bachem cathepsin H Z-R-AMC 20, 80, 160 Biomol […]

[2] = target: T2, Cathepsin L (Homo sapiens, UniProt P07711); assay: Ki against cathepsin L (Z-FR-AMC); type: biochemical; settings: SigmaPlot at 3 different substrate concentrations; pH 5.5
T2 construct: made in house; host or cells: E. coli
Experimental: as §1, §2, §3, §4

[3] = target: T3, Cathepsin S (Homo sapiens, UniProt P25774); assay: Ki against cathepsin S (Z-VVR-AMC); type: biochemical; settings: SigmaPlot at 3 different substrate concentrations; pH 6.5
T3 construct: made in house; host or cells: Pichia pastoris
Experimental: as §1, §2, §3, §4

[4] = target: T4, Cathepsin B (exopeptidase a.) (Homo sapiens, UniProt P07858); assay: Ki against cathepsin B exopeptidase activity (Abz-GIVRAK(Dnp)-OH); type: biochemical; settings: SigmaPlot at 3 different substrate concentrations; pH 5.0
T4 construct: made in house; host or cells: E. coli
Experimental: as §1, §2, §3, §4

[5] = target: T5, cathepsin X (Homo sapiens, UniProt Q9UBR2); assay: Determination of relative inhibition of cathepsin X; type: biochemical; design: made in house; host or cells: Pichia pastoris
Experimental: as §1
Abz-FEK(Dnp)-OH was used as cathepsin X specific substrate in activity assays. 90 μL of activated cathepsin X (20 nM) was added to a black 96-well plate with 5 μL of substrate (3.25 μM final concentration) and 5 μL of the compound (50 μM final concentration). The reaction was monitored continuously at 420 nm ± 10 nm with excitation at 320 nm ± 20 nm and at 37 °C. Relative inhibition (%) was calculated with the equation (1 − v i/v 0) × 100, where v i is reaction velocity in the presence of the compound and v 0 is reaction velocity without the compound.

[6] = target: T5, cathepsin X; assay: Determination of Ki values and inhibition mechanism against cathepsin X (Abz-FEK(Dnp)-OH substrate); type: biochemical; design: made in house; host or cells: Pichia pastoris; settings: for Inhibition mechanism: ENZO
Experimental: as §1, §2, §3, §4

[7] = target: T6, cathepsin X in lysates of PC-3 cells (Homo sapiens, UniProt Q9UBR2); assay: Cathepsin X activity in PC-3 cell lysates; type: cell-based; settings: 10 μM
T6 construct: endogenous in cells; host or cells: PC-3
Experimental: To detect cathepsin X activity in cell lysates, 95 μL of activated cell lysates (0.2 mg/mL total protein in assay buffer) were added to a black 96-well plate containing 5 μL of the substrate. The further procedure was the same as above. In some experiments lysates of non-treated cells were pre-incubated with 10 μM of compounds for 30 minutes and then activity was measured as described above.
For testing the enzyme activity in cell lysates, cells were treated with 10 μM of compounds. After 24 hours lysates were prepared in 50 mM Na acetate buffer pH 5.5 with 1 mM EDTA, 100 mM NaCl and 0.25% Triton X-100. Total protein concentration was determined by DC Protein Assay (Bio Rad) according to the instructions.

[8] = test system: PC-3 cells; assay: Real time cell migration assay (xCELLigence, CIM plates); type: cell-based, human; settings: 10 μM, compound in upper and bottom compartments, vs DMSO; for inhibition at 10 µM: Homo sapiens, PC-3
Experimental: (§5) Human prostate cancer cell line PC-3 cells (obtained from ATCC, Manassas, USA; ATCC Number: CRL-1435) were cultured in F-12 (Gibco) and Advanced DMEM (Gibco) (1:1) with 10% FBS, 1% penicillin/streptomycin and 1% L-glutamine. Rat pheochromocytoma PC-12 cells (obtained from ATCC, Manassas, USA; ATCC Number: CRL-1721) were cultured in Advanced DMEM (Gibco) with 5% FBS, 10% heat-inactivated horse serum, 1% penicillin/streptomycin and 1% L-glutamine.
Cell migration assay was performed on a Real-Time Cell Analyzer Dual Plate (RTCA DP) Instrument, xCELLigence System (ACEA Biosciences). CIM plates were coated with fibronectin (10 μg/ml, BD Biosciences) on the down and upper side of the microporous PET membrane for 30 min at room temperature and 2 hours at 37 °C, respectively. Excess fibronectin was removed and wells washed with phosphate buffer saline (PBS). Compounds (10 μM) were added to the complete media (lower chambers) or serum-free media (upper chambers). 0.1% DMSO was used as a control. 2 × 10^4 cells were plated per well. In additional experimental setting, inhibitors were added only to the upper chambers 3 hours after experiment started in order to measure their impact only on the cell migration and not the adhesion. Impedance data, reported as cell index, were measured continuously every 15 min for 72 hours and then analyzed with the RTCA Software (ACEA Biosciences, Inc.). Results are normalized to cells treated with DMSO.

[9] = target: T7, Cathepsin B (endopeptidase a.) (Homo sapiens, UniProt P07858); assay: Ki against cathepsin B endopeptidase activity (Z-RR-AMC); type: biochemical; settings: SigmaPlot at 3 different substrate concentrations; pH 6.0
T7 construct: made in house; host or cells: E. coli
Experimental: as §1, §2, §3, §4

[10] = test system: PC-12 cells; assay: Neurite outgrowth assay; type: cell-based, rat; settings: 10 µM; 48 h; vs DMSO control
Experimental: as §5
PC-12 cells were seeded in 96-well plates (4 × 10^4/well) coated with poly-L-lysine. Next day, the cells were treated with compounds (10 µM) in serum-free medium, and neurite outgrowth was measured after 48 h using Neurite Outgrowth Staining Kit (Molecular Probes), in accordance with the manufacturer’s instructions. Fluorescence intensity was measured at 525 nm with excitation at 483 nm for cell viability indicator and at 567 nm with excitation at 554 nm for cell membrane indicator. Results, expressing increased neurite outgrowth, were normalized to cells treated with DMSO.

[11] = target: cathepsin X; settings: cited from earlier work
[12] = target: T5, cathepsin X; assay: Reversibility of binding: washout experiment and dilution method; type: biochemical; design: made in house; host or cells: Pichia pastoris
Experimental: The reversibility of binding was determined in two separate experiments. In the washout experiment[47] 20 nM cathepsin X was mixed with a saturating level of the inhibitor (100 μM) and incubated for 1 hour at room temperature. One half of the reaction mixture was assayed for activity and the other half was diluted approximately 200000-fold with assay buffer prior to the activity assay. Step-wise dilution and concentration was performed on a Centricon (Millipore) with 10 kDa cut-off. In the dilution method[19] cathepsin X (5 μM) was incubated with inhibitor (100 μM). Half the reaction mixture was diluted 100-fold with the assay buffer containing substrate and immediately assayed for activity, the other half was incubated for 2 hours, diluted 100-fold and then assayed for activity.

[13] = screening at 50 μM compound, read-out: relative inhibition of cathepsin X
[14] = first group, SigmaPlot non-linear regression at 3 different substrate concentrations
[15] = second group, 50 μM compound, 1 h preincubation, read-out: % inhibition (1 h preincubation)
[16] = second group, progress curve analysis with ENZO

T5 sequence (Q9UBR2 62-303): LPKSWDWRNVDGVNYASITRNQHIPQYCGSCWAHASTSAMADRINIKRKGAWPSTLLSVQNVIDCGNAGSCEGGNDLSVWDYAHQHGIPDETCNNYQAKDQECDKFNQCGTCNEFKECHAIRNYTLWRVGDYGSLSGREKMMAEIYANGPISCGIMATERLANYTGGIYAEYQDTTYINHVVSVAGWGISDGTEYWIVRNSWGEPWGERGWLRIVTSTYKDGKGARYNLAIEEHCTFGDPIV
T2 sequence (P07711 114-333): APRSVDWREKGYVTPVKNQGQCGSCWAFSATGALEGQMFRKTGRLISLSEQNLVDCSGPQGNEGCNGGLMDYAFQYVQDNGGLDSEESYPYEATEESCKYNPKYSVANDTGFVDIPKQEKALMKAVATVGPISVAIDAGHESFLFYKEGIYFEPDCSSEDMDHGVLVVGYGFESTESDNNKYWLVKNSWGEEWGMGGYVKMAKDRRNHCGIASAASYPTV
T1 sequence (P09668 116-335 limits assumed, other chains not shown): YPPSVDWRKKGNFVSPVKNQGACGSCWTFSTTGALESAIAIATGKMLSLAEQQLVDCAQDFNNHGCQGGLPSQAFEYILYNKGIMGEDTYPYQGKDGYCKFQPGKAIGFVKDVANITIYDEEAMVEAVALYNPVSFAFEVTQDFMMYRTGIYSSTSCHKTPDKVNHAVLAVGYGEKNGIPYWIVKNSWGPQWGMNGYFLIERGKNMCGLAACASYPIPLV
T3 sequence (P25774 115-331): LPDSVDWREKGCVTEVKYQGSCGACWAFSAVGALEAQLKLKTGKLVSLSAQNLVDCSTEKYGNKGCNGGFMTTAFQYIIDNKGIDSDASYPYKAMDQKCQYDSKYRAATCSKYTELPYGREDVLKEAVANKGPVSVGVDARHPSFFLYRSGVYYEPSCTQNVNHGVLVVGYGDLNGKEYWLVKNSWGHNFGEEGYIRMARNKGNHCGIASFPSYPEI
T6 sequence (Q9UBR2 62-303): as the sequence (Q9UBR2 62-303) above

SMILES | Ki [1] | Ki [2] | Ki [3] | Ki [4] | inhibition at 50 µM [5, 13] | Ki [6, 14] | inhibition of cathepsin X enzyme activity in lysates of PC-3 cells [7] | Ki [9] | Ki Cathepsin S [3] | inhibition at 50 µM [5, 15] | Inhibition mechanism ([6]; second group) | Ki [6, 16] | Ki Cathepsin L [2] | cathepsin X activity after washout ([12]; 1-hour pre-incubation, 100 μM inhibitor, 200000-fold dilution, 10 kDa cut-off) | enzyme activity recovered after 100-fold rapid dilution ([12]; dilution method, cathepsin X 5 μM, inhibitor 100 μM) | inhibition of PC-3 cell migration [8] | increase of neurite outgrowth [10] | inhibition at 10 µM [8] | kinact/Ki [11] | preference for cathepsin X over cathepsins B or L [11]
Cc1[nH]c2ccccc2c1C(=O)CSc1n[nH]c(N)n1 [Compound 1, 2-((5-Amino-1H-1,2,4-triazol-3-yl)thio)-1-(2-methyl-1H-indol-3-yl)ethanone] | 1870 ± 240 µM | 975 ± 101 µM | > 1000 µM | 371 ± 97.9 µM | 60 to 75% | 38.4 ± 0.2 µM | trend toward less potent inhibition | > 1000 µM |  |  |  |  |  |  |  | failed to affect cell migration |  |  |  | 
Nc1nc(SCC(=O)c2ccc3c(c2)OCCO3)n[nH]1 [Compound 2, 2-((5-Amino-1H-1,2,4-triazol-3-yl)thio)-1-(2,3-dihydrobenzo[b][1,4]dioxin-6-yl)ethanone] | 483.1 ± 0.6 µM | 902 ± 89.7 µM | 463 ± 42.9 µM | 210 ± 11 µM | 60 to 75% | 29.2 ± 2.44 µM |  | 392 ± 121 µM |  |  |  |  |  |  |  |  | statistically significant increase | 15 to 30% |  | 
CCCNC(=O)C1OC1C(=O)NC(C(=O)O)C(C)CC (stereo not drawn) [nPrNH-(2 S,3 S)tEps-Ile-OH] |  |  |  |  |  |  |  |  |  |  |  |  |  |  |  |  |  |  | 225 M^–1s^–1 | 10 fold

More lines, main results first:

Ki [1] | Ki [2] | Ki [3] | Ki [4] | inhibition at 50 µM [5, 13] | Ki [6, 14] | inhibition of cathepsin X enzyme activity in lysates of PC-3 cells [7] | Ki [9] | Ki Cathepsin S [3] | inhibition at 50 µM [5, 15] | Inhibition mechanism ([6]; second group) | Ki [6, 16] | Ki Cathepsin L [2] | cathepsin X activity after washout ([12]; 1-hour pre-incubation, 100 μM inhibitor, 200000-fold dilution, 10 kDa cut-off) | enzyme activity recovered after 100-fold rapid dilution ([12]; dilution method, cathepsin X 5 μM, inhibitor 100 μM) | SMILES | inhibition of PC-3 cell migration [8] | increase of neurite outgrowth [10] | inhibition at 10 µM [8] | kinact/Ki [11] | preference for cathepsin X over cathepsins B or L [11]
> 500 µM | > 500 µM |  | 120.5 ± 0.9 µM | > 70% |  | trend toward less potent inhibition | > 500 µM | n.i. | 82% | competitive | 5.88 ± 0.21 µM |  |  |  | Cn1cnc(SCC(=O)c2ccc3c(c2)OCCO3)n1 [Compound 12, 1-(2,3-Dihydrobenzo[b][1,4]dioxin-6-yl)-2-((1-methyl-1H-1,2,4-triazol-3-yl)thio)ethanone] | failed to affect cell migration |  |  |  | 
> 500 µM |  |  | 83.1 ± 7 µM | > 70% |  |  | 301 ± 214 µM | n.i. | 79% | competitive | 8.78 ± 0.39 µM | n.i. |  |  | Cc1ccccc1-n1cnnc1SCC(=O)c1ccc2c(c1)OCCO2 [Compound 20, 1-(2,3-Dihydrobenzo[b][1,4]dioxin-6-yl)-2-((4-(o-tolyl)-4H-1,2,4-triazol-3-yl)thio)ethan-1-one] |  | statistically significant increase | 15 to 30% |  | 
 |  |  |  |  |  |  |  |  |  |  |  |  | retained cathepsin X inhibition | remained inhibited | CC(C)C[C@H](NC(=O)[C@H]1O[C@@H]1C(=O)O)C(=O)NCCCCN=C(N)N [Compound E-64] |  |  |  | 775 M^–1s^–1 | 

Reference: paper PMC5597618, “Identification and characterization of the novel reversible and selective cathepsin X inhibitors” (Scientific Reports, 2017)
